Laboratory results reported in PubChem BioAssay AID1224913.

Target: Proto-oncogene tyrosine-protein kinase Src (Homo sapiens) (UniProt P12931)
Assay: cellular SRC kinase inhibition, late-stage follow-up, cell-based, Western blot (AID 1224913)
Details: MDA-MB-231/MCF7 cells, pSRC Y416 Western blot; at 0.1 µM; active compounds read high

Chain of Proto-oncogene tyrosine-protein kinase Src (Homo sapiens) (P12931 whole entry, looked up): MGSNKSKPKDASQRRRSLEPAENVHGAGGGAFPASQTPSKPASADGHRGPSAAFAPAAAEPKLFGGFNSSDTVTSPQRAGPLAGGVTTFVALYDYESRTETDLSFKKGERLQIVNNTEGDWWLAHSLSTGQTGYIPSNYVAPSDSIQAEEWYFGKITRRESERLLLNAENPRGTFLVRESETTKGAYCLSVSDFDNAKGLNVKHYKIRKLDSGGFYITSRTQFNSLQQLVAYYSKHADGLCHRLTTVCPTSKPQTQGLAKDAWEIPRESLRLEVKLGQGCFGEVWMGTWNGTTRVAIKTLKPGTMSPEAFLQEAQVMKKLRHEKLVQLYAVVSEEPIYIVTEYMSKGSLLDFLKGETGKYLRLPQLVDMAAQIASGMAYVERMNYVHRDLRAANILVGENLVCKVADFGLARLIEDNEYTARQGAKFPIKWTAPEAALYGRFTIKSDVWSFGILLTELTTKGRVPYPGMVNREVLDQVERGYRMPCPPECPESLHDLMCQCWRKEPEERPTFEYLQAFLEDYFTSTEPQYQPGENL

- inhibition: 100%
SMILES: COc1cc(-c2nn(CCN3CCC(N(C)C)CC3)c3ncnc(N)c23)ccc1NC(=O)OC(C)(C)C
